Test results: patent publication US20200255884A1, “METHOD OF DETECTION OF DNA END(S) AND ITS USE” (INTODNA SP. Z O.O., priority 2017, published 2020)

Columns and labels:
HeLa 21-4 cells [1] = assay: DNA ends detection in fixed HeLa cells subjected to damaging agents (H2O2, Tpt), Procedure 1; assay type: cell-based; conditions: 30 min at 37 °C, H2O2 4 mM, Tpt 20 μM
Protocol: Procedure: • 1. Pre-preparation (optional): • Incubation of live cells with 0.5-10 mM Tris (5 min-1 h at room temperature (RT)), cells should be monitored for morphological abnormalities. • 2. Fixation and permeabilization: • a. Incubation with 1%-4% formaldehyde solution, 10-15 min, 4° C. (optional) • b. Incubation with an […] detergent (e.g. Triton X-100 (0.25-3%) 10 min-1 h, RT. (optional) • c. Incubation in 70% ethanol in water, 1 h minimum but preferred 12-18 h, −20° C., sample should be stable for several months. (optional but most preferred) • 3. Pre-blocking (optional): • a. Wash (PBS 1×5 min) • b. Streptavidin solution—incubation performed on a droplet, 30 min, RT • c. Wash (PBS 3×5 min) • d. Biotin solution—incubation performed on a droplet, 30 min, RT • e. Wash (PBS 3×5 min) • 4. Increasing accessibility of DNA ends: • Incubation with 0.5-10 mM EDTA in water, 10 min-1 h, RT. • 5. Incorporation procedure: • Incorporation of unmodified and modified nucleotides (e.g. BrdU) using terminal deoxynucleotidyl transferase: • a. incubation is performed on a droplet in a humid chamber • b. samples are rinsed in wash buffers • 6. Blocking: • Incubation with 1-5% BSA solution in PBS (from 1 h to overnight in 4° C., RT). • 7. Incubation with primary antibodies—performed on a droplet in a humid chamber: • a. primary antibodies type 1 (e.g. mouse monoclonal against BrdU), preferred dilution 1:100 in 1-5% BSA, 1 h, RT • b. wash (PBS 3×5 min) • c. primary antibodies type 2 (e.g. rabbit polyclonal against BrdU), preferred dilution 1:100 in 1-5% BSA, 1 h, RT • d. wash (PBS 3×5 min) • 8. PLA procedure: • a. incubation with PLA Probes diluted in 1% BSA (37° C., 60 min, reaction on a droplet, in a humid chamber) in 40 μl of the reaction mixture per one coverslip: • 8 μl of PLA Probe MINUS stock (e.g. anti-mouse) • 8 μl of PLA Probe PLUS stock (e.g. anti-rabbit) • 24 μl of 1% BSA • b. wash samples with Wash Buffer A (2×5 min) • c. ligation—incubation (37° C., 30 min, reaction on a droplet, in a humid chamber) in 40 μl of the reaction mixture per one coverslip: • 8 μl of 5× Ligation stock (Sigma, Duolink, DUO82009), • 31 μl of ultrapure, RNAse/DNAse free, distilled water, • 1 μl of Ligase (1 U/μl) (Sigma, Duolink, DUO82027 or DUO82029) • d. wash samples with Wash Buffer A (2×2 min) • e. amplification—incubation (37° C., 100 min, reaction performed on a droplet, in a humid chamber) in 40 μl of the reaction mixture per one coverslip: • 8 μl of 5× Amplification stock (Sigma, Duolink, DUO82060 or DUO82011), • 31.5 μl of ultrapure, RNAse/DNAse free, distilled water, • 0.5 μl of Polymerase (10 U/μl) (Sigma, Duolink, DUO82028 or DUO82030) • 9. Imaging of samples in PBS using a fluorescence microscope. […]

HeLa 21-4 cells [2] = assay: Detection of DNA breaks induced by photodynamic effect (ethidium bromide + 488 nm laser) in HeLa cells, Procedure 1; assay type: cell-based; conditions: ethidium bromide (500 μM) 10 min, dose 9 mJ
Protocol: In this experiment the DNA breaks were induced by treating live cells (HeLa 21-4 cells, obtained from prof. P.R. Cook, Oxford University) with ethidium bromide (500 μM) for 10 min and then parking the laser beam (488 nm) at a chosen place inside the nucleus (dose: 9 mJ) 2 minutes after illumination step 2 of Procedure 1 was performed. The aim of the experiment was to directly detect DNA break (s) inflicted at a specific area of the cell nucleus by a photodynamic effect.
HeLa 21-4 cells were first seeded on 18-mm coverslips and cultured for 3 days in DMEM supplemented with 10% FBS. After culturing, DNA damage was induced in chosen cells, as described previously, followed by incubation in 70% ethanol in water, 15 h, −20° C. After that, increasing of accessibility of DNA ends (step 4) was performed with 10 mM EDTA in water, 1 h, RT. Incorporation of modified (BrdUTP) nucleotides (Phoenix Flow Systems) by terminal deoxynucleotidyl transferase was performed according to the kit supplier's instructions (APO-BRDU kit, Phoenix Flow Systems). The cells were then incubated with 1% BSA solution in PBS (overnight in 4° C.). The incubation with primary antibodies type 1 and 2 according to step 7 of Procedure 2 were performed using mouse monoclonal anti-BrdU (Abcam, ab8039) and rabbit polyclonal anti-BrdU (Abcam, ab152095) (1:100 in 1% BSA), respectively. […]

Row | Compound | percentage of cells that show signs of heavy DNA damage (apoptotic cells) in the population (HeLa 21-4 cells [1]; untreated less than 5%) | average number of detectable regions of incorporation of BrdU (free ends of DNA) per cell (HeLa 21-4 cells [1]; ± standard error of the mean) | damaged nuclei with fluorescence focus visible at the illuminated place or in its direct proximity (HeLa 21-4 cells [2]) [%]
1 | CC[C@@]1(O)C(=O)OCc2c1cc1n(c2=O)Cc2cc3c(CN(C)C)c(O)ccc3nc2-1 [Tpt, topotecan] | approximately 18% | 16.39±4.92 | –
2 | CC[n+]1c(-c2ccccc2)c2cc(N)ccc2c2ccc(N)cc21 [ethidium bromide] | – | – | 90
